Data reported in US9370516B2 (Pfizer Inc., priority 2012, dated 2016).
“And” between values parts separate entries of the source, which are not always exact repeats. Equal values may be shown once.

Tests used:
[1] = biological target: T1, monkey GHSR1a (Macaca mulatta, UniProt F6Z4B1); assay: Radioligand binding filtration format assay, monkey GHSR1a; settings: pre-incubation 90 minutes; read-out: Primate GHS-1aR Filter Ki (converted)
T1 construct: monkey (XM_001084886.1)
Description: (§1) Ghrelin binding assays were performed in a final volume of 100 μl containing […] patient GHSR1a (HEK293 Tetracycline-Inducible cell line expressing the patient growth secretagogue receptor 1a; prepared as membranes) and 50 pM [^125I] ghrelin (Perkin Elmer Life Sciences, NEX-388), plus varying concentrations of test compound or vehicle.
(§2) Assays were initiated by addition of 23 μl assay buffer (50 mM HEPES, 10 mM MgCl2, 0.2% BSA, EDTA-free protease inhibitor tablets—1 tablet/50 ml buffer, pH 7.4), 25 μl 4 mg/ml hGHSR1a membrane and 50 μl of 100 pM [^125I] ghrelin, both in assay buffer.
(§3) Radioligand binding filtration format assays for dog (NM_001099945.1), monkey (XM_001084886.1), mouse (NM_177330), and rat (NM_032075) GHSR1a (all expressed in unique HEK293 Tetracycline-Inducible cell lines) were performed in an identical manner as described for patient GHSR1a except that the final amount of membrane to be used is as follows: 2 μg dog GHSR, 250 ng monkey GHSR, 200 ng mouse GHSR, or 125 ng rat GHSR.

[2] = biological target: mouse GHSR1a (Mus musculus, UniProt Q99P50); assay: biochemical; settings: Mouse GHS-1aR Filter Ki, pre-incubation 90 minutes
mouse GHSR1a, sequence (Q99P50 whole entry): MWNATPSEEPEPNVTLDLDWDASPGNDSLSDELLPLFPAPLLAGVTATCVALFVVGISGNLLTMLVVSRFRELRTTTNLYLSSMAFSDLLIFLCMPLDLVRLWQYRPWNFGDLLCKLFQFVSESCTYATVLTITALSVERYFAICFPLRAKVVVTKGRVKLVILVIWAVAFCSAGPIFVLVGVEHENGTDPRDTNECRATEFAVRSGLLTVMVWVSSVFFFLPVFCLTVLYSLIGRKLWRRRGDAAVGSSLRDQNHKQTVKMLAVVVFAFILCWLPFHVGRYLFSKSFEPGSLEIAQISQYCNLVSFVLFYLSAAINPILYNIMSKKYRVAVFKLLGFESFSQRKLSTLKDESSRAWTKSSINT
Description: as §1
(§4) Briefly, assays were prepared at room temperature in 96-well plates (Costar, 3357) containing 2 μl of test compound in DMSO (or DMSO as vehicle). Assays were initiated by addition of 23 μl assay buffer (50 mM HEPES, 10 mM MgCl2, 0.2% BSA, EDTA-free protease inhibitor tablets—1 tablet/50 ml buffer, pH 7.4), 25 μl 4 mg/ml hGHSR1a membrane and 50 μl of 100 pM [^125I] ghrelin, both in assay buffer.
(§5) The mixture was incubated for 90 minutes at room temperature followed by transfer to a 0.3% PEI-treated, 96-well glass fiber filtration plate (Perkin Elmer, 6005174). The mixture was suctioned dry with vacuum and immediately washed 3 times with 200 μl ice cold 50 mM Tris pH 7.5. Plates were allowed to dry overnight at room temperature and 30 μl Supermix scintillant (Perkin Elmer, 1200-439) is added to each well. The amount of receptor-ligand complex was determined by liquid scintillation counting using a 1450 Microbeta Trilux (Wallac). […]

[3] = biological target: rat GHSR1a (Rattus norvegicus, UniProt O08725); assay: biochemical; settings: Rat GHS-1aR Filter Ki, pre-incubation 90 minutes
rat GHSR1a, sequence (O08725 whole entry): as the sequence (Q99P50 whole entry) above, with S30P, S249A counted along it
Description: as §1, §4, §5

[4] = tested on: humans; assay: Clinical studies B3301001, B3301002, B3301007; assay type: in vivo, human
Description: Patients were administered Example 1 as an extemporaneously prepared suspension in B3301001, B3301002, and the IR in B3301007 and as an extemporaneously prepared osmotic capsule (EPOC) in B3301007. […] Dose related increase in heart rate (up to ˜10 beats per minute) as well as attenuation of both ghrelin-induced growth hormone secretion and postprandial glucose were seen after acute dosing.

[5] = biological target: T2, patient GHSR1a (Homo sapiens, UniProt Q92847)
T2 sequence (Q92847 whole entry): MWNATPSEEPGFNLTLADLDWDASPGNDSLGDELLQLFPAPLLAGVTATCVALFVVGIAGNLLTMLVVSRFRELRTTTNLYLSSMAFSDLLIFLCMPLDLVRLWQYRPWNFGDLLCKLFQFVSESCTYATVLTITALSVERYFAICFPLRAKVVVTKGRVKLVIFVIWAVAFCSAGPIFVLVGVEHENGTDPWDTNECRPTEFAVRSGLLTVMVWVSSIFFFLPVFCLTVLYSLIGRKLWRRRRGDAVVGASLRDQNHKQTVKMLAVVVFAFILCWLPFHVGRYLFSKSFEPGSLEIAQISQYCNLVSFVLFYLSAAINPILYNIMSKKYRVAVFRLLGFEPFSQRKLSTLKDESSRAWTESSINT
Excerpt: The assay monitors the ligand-dependent exchange of GDP for GTP. GPCR activation results in an increase in fluorescence as receptor-bound GDP is replaced by Europium-labeled GTP.

[6] = tested on: Male Wistar Han rats; assay: Locomotor activity after single oral dose; assay type: in vivo, rat
Description: (§6) Male Wistar Han rats were administered a single dose (1, 10, 50, or 150 mg/kg) of (R)-2-(2-methylimidazo[2,1-b]thiazol-6-yl)-1-(2-(5-(6-methylpyrimidin-4-yl)-2,3-dihydro-1H-inden-1-yl)-2,7-diazaspiro[3.5]nonan-7-yl)ethanone (Example 1) via oral gavage to assess the effects of Example 1 on locomotor activity over a 21 hour period (FIG. 1). Animals were habituated to the locomotor apparatus one hour prior to dosing. The lights were turned off at 4 pm and turned on at 4 am. Animals were dosed at 4 pm. Activity was monitored post-dose for 20 hours. Plasma, brains and CSF were taken from a satellite group of animals at Tmax (30 minutes post dosing).

[7] = biological target: T2, patient GHSR1a; assay: biochemical; settings: for Ki: Human GHS-1aR Filter Ki
Description: (§7) The SPA format was utilized for high throughput screening of test compounds and filter binding served for more comprehensive binding characterization. In both formats test compound affinity is expressed as Ki value, defined as the concentration of compound required to decrease [^125I] ghrelin binding by 50% for a specific membrane batch at a given concentration of radioligand.
Patient Ghrelin Filter Binding Assay
as §1, §4
The mixture was incubated for 90 minutes at room temperature followed by transfer to a 0.3% PEI-treated, 96-well glass fiber filtration plate (Perkin Elmer, 6005174). The mixture was suctioned dry with vacuum and immediately washed 3 times with 200 μl ice cold 50 mM Tris pH 7.5. Plates were allowed to dry overnight at room temperature and 30 μl Supermix scintillant (Perkin Elmer, 1200-439) is added to each well. The amount of receptor-ligand complex was determined by liquid scintillation counting using a 1450 Microbeta Trilux (Wallac).

[8] = Plasma and brain levels 30 minutes post dosing; assay type: in vivo, rat
Description: as §6

[9] = biological target: T3, dog GHSR1a (Canis lupus familiaris, UniProt A5HKU8); assay: Radioligand binding filtration format assay, dog GHSR1a; settings: pre-incubation 90 minutes; read-out: Dog GHS-1aR Filter Ki (converted)
T3 construct: dog (NM_001099945.1)
T3 sequence (A5HKU8 1-349): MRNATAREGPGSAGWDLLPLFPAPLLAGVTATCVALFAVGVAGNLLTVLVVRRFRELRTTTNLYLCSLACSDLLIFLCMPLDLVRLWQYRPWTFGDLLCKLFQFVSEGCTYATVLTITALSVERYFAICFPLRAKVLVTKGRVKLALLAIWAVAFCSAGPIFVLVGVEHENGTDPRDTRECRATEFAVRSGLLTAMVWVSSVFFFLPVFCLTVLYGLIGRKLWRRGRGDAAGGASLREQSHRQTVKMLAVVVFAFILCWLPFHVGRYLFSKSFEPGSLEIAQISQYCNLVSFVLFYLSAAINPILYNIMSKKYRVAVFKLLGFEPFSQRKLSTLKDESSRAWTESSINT
Description: as §1, §2, §3

[10] = biological target: T2, patient GHSR1a; settings: pre-incubation 8 hours
Excerpt: as §7

[11] = tested on: male rhesus monkeys; assay: Primate study of sleep duration and food intake after evening dosing; assay type: in vivo, Macaca mulatta
Excerpt: In a primate study, the effect of Example 1 on sleep duration and food intake three hours post evening dosing Example 1 was studied dosing either once a day (QD) or twice a day (BID). Eight healthy adult (5.8 to 9.7 years of age) male rhesus monkeys, (Macaca mulatta, of Indian origin) were used. Animals were studied in parallel. According to a cross-over design, four of the animals received Example 1 (or Vehicle as a control) QD during the first phase of the study and BID during the second phase of the study. A reverse treatment schedule was used for the remaining four animals. When Example 1 was administered QD, the single dose was administered in the evening. Each treatment period lasted 28-30 consecutive days. Vehicle treatment lasted 10-14 days, immediately preceding the phase where Example 1 was administered. Animals were also kept in their sleep/circadian chambers to become familiar with them. Treatment was administered as a liquid solution, dispensed automatically using a timer-controlled pump. Throughout treatment periods, animals were maintained in light-controlled and sound attenuated sleep/circadian chambers, under constant conditions of dim light, in order to determine the intrinsic rhythms of sleep/activity and self-administered food intake. Sleep/activity cycle and sleep duration was documented using continuous on-line actigraphic image analysis technique, as described in Masuda et al., J Biol Rhythms. 2010 October; 25(5):361-71, Intrinsic activity rhythms in Macaca mulatta: their entrainment to light and melatonin. A software algorithm for actigraphic data analysis of sleep versus wakefulness in rhesus monkeys is explained in Zhdanova et al., J Biol Rhythms. 2011 April; 26(2):149-59. Aging of intrinsic circadian rhythms and sleep in a diurnal nonhuman primate, Macaca mulatta. Sleep onset and duration estimates were based on the comparisons between polysomnographic and actigraphic sleep in this species. Each circadian chamber was equipped with an individual touch-screen monitor, connected to an automatic pellet dispenser (ENV-203-1000, Med Associates Inc., St. Albans, Vt.). This allowed for ad libitum around the clock self-administration of 1 g food pellets (Nutritionally complete dustless precision pellets, Bio-Serv, Frenchtown, N.J.) via pressing a moving on-screen target. The time each pellet dispensed was documented. Data analysis was conducted using linear mixed model (SPSS), with the level of significance at p<0.05. Data were presented as group means (standard error of the means (SEM)) for each treatment condition: QD or BID administration of vehicle or Example 1.

[12] = biological target: broad panel of receptors, transporters, ion channels, and enzymes; assay: Selectivity against a broad panel
[13] = 10 mg/kg oral gavage, 35-65 minutes post dosing
[14] = 50 mg/kg oral gavage, 35-65 minutes post dosing
[15] = QD and BID groups, N=8 per group, p<0.01
[16] = individual animal, evening QD, throughout the treatment period

T1 sequence (F6Z4B1 1-366): as the sequence (Q92847 whole entry) above, with P6A, D20E, Q36R, A59S, V163I counted along it

Cc1cc(-c2ccc3c(c2)CC[C@H]3N2CC3(CCN(C(=O)Cc4cn5cc(C)sc5n4)CC3)C2)ncn1 [Example 1, (R)-2-(2-methylimidazo[2,1-b]thiazol-6-yl)-1-(2-(5-(6-methylpyrimidin-4-yl)-2,3-dihydro-1H-inden-1-yl)-2,7-diazaspiro[3.5]nonan-7-yl)ethanone]
Ki [1]: 1.83 nM | Ki [2]: 7.7 nM | Ki [3]: 3.19 nM and 3.2 nM | dose related increase in heart rate ([4]; after acute dosing): ≤ 10 beats per minute | ghrelin-induced growth hormone secretion ([4]; after acute dosing): attenuation | postprandial glucose ([4]; after acute dosing): attenuation | safety and tolerability in humans ([4]; up to 100 mg BID for 14 days): safe and generally well tolerated | functionality of the test compound [5]: inverse agonist | effect on locomotor activity compared to vehicle ([6]; 1 mg/kg oral gavage, 35-65 minutes post dosing): no biologically or statistically significant effect | decrease in rearing [6, 13]: 56% | decrease in total locomotor activity [6, 13]: 60% | decrease in rearing [6, 14]: 43% | decrease in total locomotor activity [6, 14]: 48% | total activity compared to vehicle control ([6]; 150 mg/kg oral gavage, 35-65 minutes post dosing): reduction in total activity which was statistically significant | total activity ([6]; 20 hours post dosing): no statistically or biologically significant reductions in total activity | hyperactivity ([6]; any dose (1-150 mg/kg)): did not induce hyperactivity | Ki ([7]; pre-incubation 90 minutes): 2.49 nM and 2.5 nM | Ki ([7]; pre-incubation 24 hours): 1.42 nM | Kd ([7]; Human GHS-1aR Filter Motulsky Kd, Equilibrium 4.07 hours): 3.04 nM | Kd ([7]; human Kd via Patient Ghrelin Filter Binding Assay): 3 nM | Brain (nM free) ([8]; 1 mg/kg oral): 1.6 nM free | Plasma (nM free) ([8]; 1 mg/kg oral): 18 nM free | Brain (nM free) ([8]; 10 mg/kg oral): 16 nM free | Plasma (nM free) ([8]; 10 mg/kg oral): 184 nM free | Brain (nM free) ([8]; 50 mg/kg oral): 80 nM free | Plasma (nM free) ([8]; 50 mg/kg oral): 856 nM free | Brain (nM free) ([8]; 150 mg/kg oral): 148 nM free | Plasma (nM free) ([8]; 150 mg/kg oral): 1704 nM free | Ki [9]: 3.56 nM and 3.57 nM | Human GHS-1aR SPA Ki [10]: 2.24 ng/mL | change in food intake within 3 hours of evening administration vs vehicle [11, 15]: significant decrease in food intake | change in sleep duration within 3 hours of evening treatment vs vehicle [11, 15]: significant increase in sleep duration | food intake soon after administration [11, 16]: significantly reduced food intake | sleep latency [11, 16]: significantly reduced sleep latency | IC50 [12]: > 1000 nM
